The values that follow come from patent publication US8524291B2, “Anti-obesity product and its method of preparation” (Chongquing Institute of Ecological Materia Medica Co. Ltd., priority 2006, dated 2013).

This assay can be described thus: 40-day study in ob/ob mice on high fat diet: body weight and fat, metabolic parameters, liver indicators. It counts as in vivo, C57 black ob/ob mice. Particulars: day 43. The procedure: Forty C57 black ob/ob mice were allocated to five groups of eight for study over 40 days as follows:
High fat diet—no treatment;
High fat diet—100 mg/kg/OD PYN22;
High fat diet—300 mg/kg/OD PYN22; • High fat diet—3 mg/kg/OD Rosiglitazone (positive control).
Mice were weighed twice per week and food intake measured daily throughout the study. Any laxative effects of treatments were visually examined and recorded.
Oral glucose tolerance tests were conducted on Day 7, Day 21 and Day 35.
Energy expenditure was measured at Day 14.
Fasting plasma insulin and lipids were measured on Days 7, 21 and 35.
Three days before sacrifice, 100 ul blood samples were taken from all animals to provide plasma glucose, insulin, free fatty acid, triglycerides, cholesterol and HDL-cholesterol.
At sacrifice, body mass and fat mass were calculated; the same parameters were also calculated for liver, heart and white adipose tissues.

Regarding `CN(CCOc1ccc(CC2SC(=O)NC2=O)cc1)c1ccccn1` (centres unmarked) [Rosiglitazone], the “actual liver weight (FIG. 11C)” value is reported as “no effect” and the “relative (% body weight) liver weight (FIG. 11D)” value is recorded as “no effect”.
